From patent US12551573B2, “Compositions and methods for the targeting of PCSK9” (Scribe Therapeutics Inc., priority 2022, dated 2026)

Key:
Huh7 cells = assay: RNA-seq: differentially regulated off-target genes in transfected Huh7 cells; type: cell-based, human; conditions: 6 and 26 days, |log2FC|>2 and adjusted p-value<0.001, vs untreated naive
Text: (§1) Seeded Huh7 cells were transfected with mRNA encoding a catalytically-active CasX 676, dXR1, or LTRP5-ADD-ZIM3 and a gRNA with scaffold 316 and a spacer targeting the PCSK9 locus. Cells were harvested at 6 and 26 days post-transfection and subsequently lysed and stored in DNA/RNA Shield (Zymo Research). As an additional control, untreated, naïve cells were also harvested. The collected samples were subjected to gDNA/RNA extraction using the Quick-DNA/RNA Miniprep Plus kit (Zymo Research). RNA samples were used for total RNA sequencing (RNA-seq), which was performed by a third-party. Raw FASTQ files were received and processed with FASTQC, and adapters were trimmed using Trim Galore. Transcript expression was then quantified against the hg38 genome using Salmon to generate normalized counts for each gene (transcripts per million, or TPM). Differential expression analysis was performed using DESeq2. Genes with fewer than 10 counts in all samples were omitted from analysis, and all pairwise comparisons (e.g., differential gene expression analyses between untreated and treated conditions at the two individual timepoints) were done with significance thresholds of |log 2FC|>2 and adjusted p-value<0.001.

human PCSK9 locus [1] = assay: Secreted PCSK9 by ELISA (normalized to total cell count) in Huh7 cells transfected with mRNA and gRNA; type: cell-based; conditions: paired with LTRP5-ADD-ZIM3 mRNA; for Secreted PCSK9 / Percent reduction in PCSK9 secretion / Average percent reduction in PCSK9 secretion: Huh7 cells, 6 days post-transfection; for Secreted PCSK9: normalized to total cell count; for Percent reduction in PCSK9 secretion: relative to non-targeting gRNA control; for Average percent reduction in PCSK9 secretion: averaged from the two doses
How it was run: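 Huh7 cells were transfected with CasX or epigenetic-editor mRNA plus PCSK9- or B2M-targeting gRNA (scaffold 316). In one screen, LTRP5-ADD-ZIM3 mRNA:gRNA was given at 50:25 or 25:12.5 ng by Lipofectamine 3000. Secreted PCSK9 was measured by ELISA in supernatant 4-87 days post-transfection and normalized to total cell count.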

human PCSK9 locus [2] = assay: RNA-seq: normalized PCSK9 read counts (log2FC) in transfected Huh7 cells; type: cell-based; conditions: mRNA + gRNA scaffold 316 (v1), 6 and 26 days post-transfection, vs untreated naive
Text: as §1

HBEGF locus = type: cell-based, human; conditions: HEK293T; dCasX491 fusion, scaffold 174 spacer 34.28; 2 ng/ml diphtheria toxin for 48 hours
mouse PCSK9 locus = assay: Intracellular PCSK9 staining by flow cytometry in Hepa1-6 cells lipofected with mRNA and gRNA; type: cell-based; conditions: for permanence of PCSK9 silencing by spacer: paired with LTRP1-ZIM3 mRNA, through day 25
Protocol: Seeded Hepa1-6 cells treated with the NATE™ inhibitor were lipofected with 300 ng of mRNA encoding dXR1 or LTRP1-ZIM3 (Table 12) and 150 ng of a PCSK9-targeting gRNA (Table 14). Seven different gRNAs spanning the promoter region of the mouse PCSK9 locus were tested, in addition to a non-targeting sequence complementary to the human PCSK9 gene (Table 14). Cells were harvested at 6, 13, and 25 days after transfection to measure intracellular levels of the PCSK9 protein using an intracellular flow cytometry staining protocol. Briefly, cells were fixed using 4% paraformaldehyde in PBS, permeabilized, and stained using a mouse anti-PCSK9 primary antibody (R&D Systems®), followed by a fluorescent goat anti-mouse IgG secondary antibody (Thermo Fisher®). […] Cell populations were gated using the non-targeting gRNA as a negative control.
Seeded Hepa1-6 cells treated with the NATE™ inhibitor were lipofected with 300 ng of mRNA encoding LTRP1-ZIM3, LTRP5-ZIM3, catalytically-active CasX 491, or dCas9-ZNF10-DNMT3A/3L, and 150 ng of PCSK9-targeting gRNA (Table 14). Intracellular levels of PCSK9 protein were measured at 7, 14, 21, 36, and 71 days post-transfection using an intracellular staining protocol as described earlier for experiment #1.
Transfection of mRNA and gRNA into Hepa1-6 cells and intracellular PCSK9 staining were performed as described in Example 2. Briefly, each well of seeded Hepa1-6 cells was transfected with 300 ng of mRNA encoding LTRP5-ZIM3 or LTRP5-ADD-ZIM3 and 150 ng of PCSK9-targeting gRNA with spacer 27.88 or 27.94. Intracellular levels of PCSK9 protein were measured at various timepoints, up to day 53 post-transfection using an intracellular staining protocol as described earlier in Example 2. A non-targeting gRNA was used as an experimental control.

Row | Substance | number of differentially regulated off-target genes (Huh7 cells) | Secreted PCSK9 (human PCSK9 locus [1]; 25 ng mRNA:12.5 ng gRNA) [ng/mL] | Percent reduction in PCSK9 secretion (human PCSK9 locus [1]; 25 ng mRNA:12.5 ng gRNA) [%] | Secreted PCSK9 (human PCSK9 locus [1]; 50 ng mRNA:25 ng gRNA) [ng/mL] | Percent reduction in PCSK9 secretion (human PCSK9 locus [1]; 50 ng mRNA:25 ng gRNA) [%] | Average percent reduction in PCSK9 secretion (human PCSK9 locus [1]) [%] | PCSK9 expression (RNA-seq) (human PCSK9 locus [2]) | log 2 (fold change) of abundance before and after selection (HBEGF locus) | permanence of PCSK9 silencing by spacer (mouse PCSK9 locus) | knockdown of intracellular PCSK9 (mouse PCSK9 locus; 300 ng LTRP1-ZIM3 mRNA + 150 ng gRNA (scaffold 174, v1), day 6) [%] | durability of PCSK9 repression by spacer (mouse PCSK9 locus; paired with LTRP5-ZIM3 or LTRP5-ADD-ZIM3, day 53) | durable PCSK9 knockdown (mouse PCSK9 locus; third-party-produced mRNA paired with gRNAs containing various spacers, up to day 71) | repression of PCSK9 secretion by spacer (human PCSK9 locus [1]; Huh7, scaffold 316, days 4, 14, 27)
1 | AUGGUAGGCACAAGCUCAGC (listed as RNA, chemistry not given here) [spacer 6.133, Promoter] | lowest number of differentially regulated off-target genes | 42.13 | 40.86 | 29.45 | 64.21 | 52.53 | durably repress PCSK9 expression through day 26 |  |  |  |  |  | 
2 | ZIM3: human ZIM3 KRAB repressor domain, SEQ ID NO: 128 [reference compound] |  |  |  |  |  |  |  | 1.7787 |  |  |  |  | 
3 | CACUGAAUAGCGCAGCCGCA (listed as RNA, chemistry not given here) [spacer 6.167, Intron 1] | higher number of differentially regulated off-target genes | 66.61 | 6.51 | 39.55 | 51.93 | 29.22 | durably repress PCSK9 expression through day 26 |  |  |  |  |  | 
4 | CGCUACCUGCCUAAACUUUG (spacer within chemically modified full gRNA with 2'-OMe and phosphorothioate ends, further chemistry not given here) [spacer 27.88, mouse PCSK9] |  |  |  |  |  |  |  |  | strongest permanence in silencing PCSK9 |  |  |  | 
5 | AGGGUGUGGGUGCUUGACGC (listed as RNA, chemistry not given here) [spacer 6.154, Promoter] | higher number of differentially regulated off-target genes | 24.48 | 65.64 | 6.87 | 91.65 | 78.64 | durably repress PCSK9 expression through day 26 |  |  |  |  |  | 
6 | CCCCUCUUAAUCCCCACUCC (spacer within chemically modified full gRNA with 2'-OMe and phosphorothioate ends, further chemistry not given here) [spacer 27.94, mouse PCSK9] |  |  |  |  |  |  |  |  | strongest permanence in silencing PCSK9 | > 80 | more durable repression than use of spacer 27.88 by day 53 | highest level of PCSK9 repression | 
7 | CUCUGCGCGUAAUCUGACGC (listed as RNA, chemistry not given here) [spacer 6.151, Promoter] |  | 66.42 | 6.77 | 53.44 | 35.05 | 20.91 |  |  |  |  |  |  | 
8 | TG-06-345 (guide GCCUCGCCGCGGCACAGGUG; listed as RNA, chemistry not given here) |  | 85.68 | 20.26 | 81.22 | 1.28 | 9.49 |  |  |  |  |  |  | 
9 | CGCGCCCUGCUCCUGAACUU (listed as RNA, chemistry not given here) [spacer 6.160, Exon 1] |  | 48.67 | 31.69 | 20.63 | 74.93 | 53.31 |  |  |  |  |  |  | 
10 | GUGUUUCCUGGGUCCACCUU (listed as RNA, chemistry not given here) [spacer 6.147, Promoter] |  | 37.43 | 47.46 | 53.6 | 34.85 | 41.15 |  |  |  |  |  |  | 
11 | UCCCUCUGCGCGUAAUCUGA (listed as RNA, chemistry not given here) [spacer 6.150, Promoter] |  | 39.59 | 44.42 | 18.33 | 77.73 | 61.08 |  |  |  |  |  |  | 
12 | TG-06-346 (guide CCCACCUGUGCCGCGGCGAG; listed as RNA, chemistry not given here) |  | 81.63 | 14.58 | 77.02 | 6.39 | 4.09 |  |  |  |  |  |  | 
13 | GUGGGCAGCGAGGAGUCCAC (listed as RNA, chemistry not given here) [spacer 6.144, Promoter] |  | 29 | 59.29 | 23.42 | 71.53 | 65.41 |  |  |  |  |  |  | 
14 | GAAUCAAUCCUACUGUGGAC (listed as RNA, chemistry not given here) [spacer 6.143, Promoter] |  | 22.33 | 68.66 | 38.69 | 52.97 | 60.81 |  |  |  |  |  |  | 
15 | GGGUCUGAGCCUGGAGGAGU (listed as RNA, chemistry not given here) [spacer 6.157, Exon 1] |  | 32.4 | 54.53 | 12.32 | 85.03 | 69.78 |  |  |  |  |  |  | most effective repression of PCSK9 secretion
